Data reported in patent publication EP0338372A2, “Solubilized pro-drugs” (AMERICAN CYANAMID COMPANY, priority 1988, dated 1989).

Tested on: lymphocytic leukemia P388
Test: Lymphocytic leukemia P388 test
Format: in vivo, BDF1 mice
[1] = Dose 3.12 mg/kg intraperitoneally on days 1, 5 and 9
[2] = Dose 6.25 mg/kg intraperitoneally on days 1, 5 and 9
[3] = Dose 12.5 mg/kg intraperitoneally on days 1, 5 and 9
[4] = Dose 25 mg/kg intraperitoneally on days 1, 5 and 9
[5] = Dose 50 mg/kg intraperitoneally on days 1, 5 and 9
[6] = Dose 100 mg/kg intraperitoneally on days 1, 5 and 9
[7] = Dose 200 mg/kg intraperitoneally on days 1, 5 and 9

Which results are given for `O=C(c1cccc([N+](=O)[O-])c1)N1CCN=C1N(N=Cc1c2ccccc2c(C=NN(C(=O)c2cccc([N+](=O)[O-])c2)C2=NCCN2C(=O)c2cccc([N+](=O)[O-])c2)c2ccccc12)C(=O)c1cccc([N+](=O)[O-])c1` [2,2'(9,10-Anthracenediyldimethylidyne)bis[1-[4,5-dihydro-1-(3-nitrobenzoyl)-1H-imidazol-2-yl]hydra-zide] of 3-nitrobenzoic acid]?
Median Survival [1]: 16 days; T/C x 100 % [1]: 133%; Median Survival [2]: 16 days; T/C x 100 % [2]: 133%; Median Survival [3]: 13.5 days; T/C x 100 % [3]: 113%; Median Survival [4]: 18 days; T/C x 100 % [4]: 150%; Median Survival [5]: 16.5 days; T/C x 100 % [5]: 138%; Median Survival [6]: 18 days; T/C x 100 % [6]: 150%; Median Survival [7]: 21.5 days; T/C x 100 % [7]: 179%

What does the source list for `CC(=O)N1CCN=C1N(N=Cc1c2ccccc2c(C=NN(C(C)=O)C2=NCCN2C(C)=O)c2ccccc12)C(C)=O` [2,2'-(9,10-Anthracenediyldimethylidyne)bis[1-(1-acetyl-4,5-dihydro-1H-imidazol-2-yl)hydrazide] of acetic acid]?
Median Survival [3]: 10.5 days; T/C x 100 % [3]: 105%; Median Survival [5]: 10.5 days; T/C x 100 % [5]: 105%; Median Survival [6]: 11 days; T/C x 100 % [6]: 110%

Which “Median Survival” value [4] does the source give for `O=C(c1ccccc1F)N1CCN=C1N(N=Cc1c2ccccc2c(C=NN(C(=O)c2ccccc2F)C2=NCCN2C(=O)c2ccccc2F)c2ccccc12)C(=O)c1ccccc1F` [2,2'-(9,10-Anthracenediyldimethylidyne)bis[1-[1-(2-fluorobenzoyl)-4,5-dihydro-1H-imidazol-2-yl] hydrazide] of 2-fluorobenzoic acid] here?
The value was 12 days.

What about the “T/C x 100 %” value [4] of the same compound?
Its value is 109%.

And the “Median Survival” value [5]?
Its value is 13 days.

And the “T/C x 100 %” value [5]?
Its value is 118%.

And the “Median Survival” value [6]?
Its value is 13 days.

And the “T/C x 100 %” value [6]?
Its value is 118%.

What about the “Median Survival” value [7] of the same compound?
Its value is 12 days.

And the “T/C x 100 %” value [7]?
Its value is 109%.

For `O=C(c1ccco1)N1CCN=C1N(N=Cc1c2ccccc2c(C=NN(C(=O)c2ccco2)C2=NCCN2C(=O)c2ccco2)c2ccccc12)C(=O)c1ccco1` [2,2'-(9,10-Anthracenediyldimethylidyne)bis[1-[1-(2-furanylcarbonyl)-4,5-dihydro-1H-imidazol-2-yl]hydrazide] of 2-furancarboxylic acid], which “Median Survival” value [7] is on record?
Its value is 12 days.

What about the “T/C x 100 %” value [7] of the same compound?
The value was 120%.

How did the “Median Survival” value [6] turn out when `CC(C)(C)CC(=O)N1CCN=C1N(N=Cc1c2ccccc2c(C=NN(C(=O)CC(C)(C)C)C2=NCCN2C(=O)CC(C)(C)C)c2ccccc12)C(=O)CC(C)(C)C` [2,2'-(9,10-Anthracenediyldimethylidyne)bis[1-[1-(3,3-dimethyl-1-oxobutyl)-4,5-dihydro-1H-imidazol-2-yl]-hydrazide] of 3,3-dimethylbutanoic acid] was run?
The value was 12 days.

What about the “T/C x 100 %” value [6] of the same compound?
Its value is 109%.

And the “Median Survival” value [7]?
The value was 13 days.

What about the “T/C x 100 %” value [7] of the same compound?
The value was 118%.
